Test results taken from patent US20230023092A1, “TREATMENT OF DEPRESSION AND OTHER VARIOUS DISORDERS WITH PSILOCYBIN” (COMPASS […], priority 2019, published 2023).

How the values were obtained:
healthy subjects [1] = assay: Five-Dimensional Altered States of Consciousness (5D-ASC) questionnaire; format: in vivo, human; conditions: for 5D-ASC Anxiety, Mean / 5D-ASC Audio-visual synaesthesia, Mean / 5D-ASC Auditory alteration, Mean / 5D-ASC Blissful state, Mean / 5D-ASC Changed meaning of percepts, Mean / 5D-ASC Complex imagery, Mean / 5D-ASC Disembodiment, Mean / 5D-ASC Dread of ego dissolution, Mean / 5D-ASC Elementary imagery, Mean / 5D-ASC Experience of unity, Mean / 5D-ASC Impaired control and cognition, Mean / 5D-ASC Insightfulness, Mean / 5D-ASC Oceanic boundlessness, Mean / 5D-ASC Spiritual experience, Mean / 5D-ASC Vigilance reduction, Mean / 5D-ASC Visual restructuralisation, Mean: Post-Treatment Day 0, LS mean; for 5D-ASC Anxiety, Mean difference / 5D-ASC Audio-visual synaesthesia, Mean difference / 5D-ASC Auditory alteration, Mean difference / 5D-ASC Blissful state, Mean difference / 5D-ASC Changed meaning of percepts, Mean difference / 5D-ASC Complex imagery, Mean difference / 5D-ASC Disembodiment, Mean difference / 5D-ASC Dread of ego dissolution, Mean difference / 5D-ASC Elementary imagery, Mean difference / 5D-ASC Experience of unity, Mean difference / 5D-ASC Impaired control and cognition, Mean difference / 5D-ASC Insightfulness, Mean difference / 5D-ASC Oceanic boundlessness, Mean difference / 5D-ASC Spiritual experience, Mean difference / 5D-ASC Vigilance reduction, Mean difference / 5D-ASC Visual restructuralisation, Mean difference: Post-Treatment Day 0
From the text: In some embodiments, the Five Dimension Altered States of Consciousness questionnaire (5D-ASC) is utilized to evaluate the safety and/or efficacy of psilocybin. […] The 5 dimensions include oceanic boundlessness, anxious ego dissolution, visionary restructuralization, auditory alterations and reduction of vigilance.

healthy subjects [2] = assay: Reading the Mind in the Eyes Test (RMET); format: in vivo, human
From the text: In some embodiments, Reading the Mind in the Eyes Test (RMET) is utilized to evaluate the safety and/or efficacy of psilocybin. The RMET has 36 items, in which subjects are presented with a photograph of the eyes region of the face and must choose 1 of 4 adjectives or phrases to describe the mental state of the person pictured. A definition handout is provided at the beginning of the task and a practice item precedes the first trial.
The Pictorial Empathy Test (PET), Reading the Mind in the Eyes Test (RMET), Scale of Social Responsibility (SSR), Social Value Orientation (SVO), and Toronto Empathy Questionnaire (TEQ) were performed. Table 20 summarizes the results of the mixed model for repeated measures (MMRM) analysis for each of the aforementioned social cognition panel scales measured on Day 7 and Day 84 after study drug administration.

CN(C)CCc1c[nH]c2cccc(OP(=O)(O)O)c12 [Psilocybin, psilocybin]
5D-ASC Anxiety, Mean (healthy subjects [1]; Psilocybin 10 mg): 15.7 | 5D-ASC Audio-visual synaesthesia, Mean (healthy subjects [1]; Psilocybin 10 mg): 74.7 | 5D-ASC Auditory alteration, Mean (healthy subjects [1]; Psilocybin 10 mg): 20.3 | 5D-ASC Blissful state, Mean (healthy subjects [1]; Psilocybin 10 mg): 59.1 | 5D-ASC Changed meaning of percepts, Mean (healthy subjects [1]; Psilocybin 10 mg): 46.6 | 5D-ASC Complex imagery, Mean (healthy subjects [1]; Psilocybin 10 mg): 53.0 | 5D-ASC Disembodiment, Mean (healthy subjects [1]; Psilocybin 10 mg): 52.7 | 5D-ASC Dread of ego dissolution, Mean (healthy subjects [1]; Psilocybin 10 mg): 21.7 | 5D-ASC Elementary imagery, Mean (healthy subjects [1]; Psilocybin 10 mg): 76.5 | 5D-ASC Experience of unity, Mean (healthy subjects [1]; Psilocybin 10 mg): 54.4 | 5D-ASC Impaired control and cognition, Mean (healthy subjects [1]; Psilocybin 10 mg): 27.9 | 5D-ASC Insightfulness, Mean (healthy subjects [1]; Psilocybin 10 mg): 53.9 | 5D-ASC Oceanic boundlessness, Mean (healthy subjects [1]; Psilocybin 10 mg): 55.7 | 5D-ASC Spiritual experience, Mean (healthy subjects [1]; Psilocybin 10 mg): 48.7 | 5D-ASC Vigilance reduction, Mean (healthy subjects [1]; Psilocybin 10 mg): 35.3 | 5D-ASC Visual restructuralisation, Mean (healthy subjects [1]; Psilocybin 10 mg): 59.1 | 5D-ASC Anxiety, Mean difference (healthy subjects [1]; Psilocybin 10 mg-Placebo): 14.6 | 5D-ASC Audio-visual synaesthesia, Mean difference (healthy subjects [1]; Psilocybin 10 mg-Placebo): 66.6 | 5D-ASC Auditory alteration, Mean difference (healthy subjects [1]; Psilocybin 10 mg-Placebo): 18.6 | 5D-ASC Blissful state, Mean difference (healthy subjects [1]; Psilocybin 10 mg-Placebo): 50.9 | 5D-ASC Changed meaning of percepts, Mean difference (healthy subjects [1]; Psilocybin 10 mg-Placebo): 44.4 | 5D-ASC Complex imagery, Mean difference (healthy subjects [1]; Psilocybin 10 mg-Placebo): 48.6 | 5D-ASC Disembodiment, Mean difference (healthy subjects [1]; Psilocybin 10 mg-Placebo): 45.8 | 5D-ASC Dread of ego dissolution, Mean difference (healthy subjects [1]; Psilocybin 10 mg-Placebo): 20.5 | 5D-ASC Elementary imagery, Mean difference (healthy subjects [1]; Psilocybin 10 mg-Placebo): 63.6 | 5D-ASC Experience of unity, Mean difference (healthy subjects [1]; Psilocybin 10 mg-Placebo): 47.1 | 5D-ASC Impaired control and cognition, Mean difference (healthy subjects [1]; Psilocybin 10 mg-Placebo): 26.2 | 5D-ASC Insightfulness, Mean difference (healthy subjects [1]; Psilocybin 10 mg-Placebo): 47.6 | 5D-ASC Oceanic boundlessness, Mean difference (healthy subjects [1]; Psilocybin 10 mg-Placebo): 47.7 | 5D-ASC Spiritual experience, Mean difference (healthy subjects [1]; Psilocybin 10 mg-Placebo): 44.6 | 5D-ASC Vigilance reduction, Mean difference (healthy subjects [1]; Psilocybin 10 mg-Placebo): 20.0 | 5D-ASC Visual restructuralisation, Mean difference (healthy subjects [1]; Psilocybin 10 mg-Placebo): 52.6 | 5D-ASC Anxiety, Mean (healthy subjects [1]; Psilocybin 25 mg): 32.4 | 5D-ASC Audio-visual synaesthesia, Mean (healthy subjects [1]; Psilocybin 25 mg): 75.4 | 5D-ASC Auditory alteration, Mean (healthy subjects [1]; Psilocybin 25 mg): 30.7 | 5D-ASC Blissful state, Mean (healthy subjects [1]; Psilocybin 25 mg): 61.9 | 5D-ASC Changed meaning of percepts, Mean (healthy subjects [1]; Psilocybin 25 mg): 46.1 | 5D-ASC Complex imagery, Mean (healthy subjects [1]; Psilocybin 25 mg): 64.9 | 5D-ASC Disembodiment, Mean (healthy subjects [1]; Psilocybin 25 mg): 53.8 | 5D-ASC Dread of ego dissolution, Mean (healthy subjects [1]; Psilocybin 25 mg): 31.9 | 5D-ASC Elementary imagery, Mean (healthy subjects [1]; Psilocybin 25 mg): 76.9 | 5D-ASC Experience of unity, Mean (healthy subjects [1]; Psilocybin 25 mg): 60.9 | 5D-ASC Impaired control and cognition, Mean (healthy subjects [1]; Psilocybin 25 mg): 32.7 | 5D-ASC Insightfulness, Mean (healthy subjects [1]; Psilocybin 25 mg): 64.4 | 5D-ASC Oceanic boundlessness, Mean (healthy subjects [1]; Psilocybin 25 mg): 62.9 | 5D-ASC Spiritual experience, Mean (healthy subjects [1]; Psilocybin 25 mg): 57.9 | 5D-ASC Vigilance reduction, Mean (healthy subjects [1]; Psilocybin 25 mg): 45.7 | 5D-ASC Visual restructuralisation, Mean (healthy subjects [1]; Psilocybin 25 mg): 65.2 | 5D-ASC Anxiety, Mean difference (healthy subjects [1]; Psilocybin 25 mg-10 mg): 16.7 | 5D-ASC Audio-visual synaesthesia, Mean difference (healthy subjects [1]; Psilocybin 25 mg-10 mg): 0.7 | 5D-ASC Auditory alteration, Mean difference (healthy subjects [1]; Psilocybin 25 mg-10 mg): 10.5 | 5D-ASC Blissful state, Mean difference (healthy subjects [1]; Psilocybin 25 mg-10 mg): 2.8 | 5D-ASC Changed meaning of percepts, Mean difference (healthy subjects [1]; Psilocybin 25 mg-10 mg): −0.5 | 5D-ASC Complex imagery, Mean difference (healthy subjects [1]; Psilocybin 25 mg-10 mg): 11.9 | 5D-ASC Disembodiment, Mean difference (healthy subjects [1]; Psilocybin 25 mg-10 mg): 1.1 | 5D-ASC Dread of ego dissolution, Mean difference (healthy subjects [1]; Psilocybin 25 mg-10 mg): 10.1 | 5D-ASC Elementary imagery, Mean difference (healthy subjects [1]; Psilocybin 25 mg-10 mg): 0.4 | 5D-ASC Experience of unity, Mean difference (healthy subjects [1]; Psilocybin 25 mg-10 mg): 6.5 | 5D-ASC Impaired control and cognition, Mean difference (healthy subjects [1]; Psilocybin 25 mg-10 mg): 4.7 | 5D-ASC Insightfulness, Mean difference (healthy subjects [1]; Psilocybin 25 mg-10 mg): 10.5 | 5D-ASC Oceanic boundlessness, Mean difference (healthy subjects [1]; Psilocybin 25 mg-10 mg): 7.2 | 5D-ASC Spiritual experience, Mean difference (healthy subjects [1]; Psilocybin 25 mg-10 mg): 9.2 | 5D-ASC Vigilance reduction, Mean difference (healthy subjects [1]; Psilocybin 25 mg-10 mg): 10.3 | 5D-ASC Visual restructuralisation, Mean difference (healthy subjects [1]; Psilocybin 25 mg-10 mg): 6.1 | 5D-ASC Anxiety, Mean difference (healthy subjects [1]; Psilocybin 25 mg-Placebo): 31.3 | 5D-ASC Audio-visual synaesthesia, Mean difference (healthy subjects [1]; Psilocybin 25 mg-Placebo): 67.3 | 5D-ASC Auditory alteration, Mean difference (healthy subjects [1]; Psilocybin 25 mg-Placebo): 29.1 | 5D-ASC Blissful state, Mean difference (healthy subjects [1]; Psilocybin 25 mg-Placebo): 53.6 | 5D-ASC Changed meaning of percepts, Mean difference (healthy subjects [1]; Psilocybin 25 mg-Placebo): 43.9 | 5D-ASC Complex imagery, Mean difference (healthy subjects [1]; Psilocybin 25 mg-Placebo): 60.5 | 5D-ASC Disembodiment, Mean difference (healthy subjects [1]; Psilocybin 25 mg-Placebo): 46.9 | 5D-ASC Dread of ego dissolution, Mean difference (healthy subjects [1]; Psilocybin 25 mg-Placebo): 30.6 | 5D-ASC Elementary imagery, Mean difference (healthy subjects [1]; Psilocybin 25 mg-Placebo): 64.0 | 5D-ASC Experience of unity, Mean difference (healthy subjects [1]; Psilocybin 25 mg-Placebo): 53.6 | 5D-ASC Impaired control and cognition, Mean difference (healthy subjects [1]; Psilocybin 25 mg-Placebo): 30.9 | 5D-ASC Insightfulness, Mean difference (healthy subjects [1]; Psilocybin 25 mg-Placebo): 58.2 | 5D-ASC Oceanic boundlessness, Mean difference (healthy subjects [1]; Psilocybin 25 mg-Placebo): 54.9 | 5D-ASC Spiritual experience, Mean difference (healthy subjects [1]; Psilocybin 25 mg-Placebo): 53.7 | 5D-ASC Vigilance reduction, Mean difference (healthy subjects [1]; Psilocybin 25 mg-Placebo): 30.4 | 5D-ASC Visual restructuralisation, Mean difference (healthy subjects [1]; Psilocybin 25 mg-Placebo): 58.7 | RMET change from baseline (LS mean) (healthy subjects [2]; Day 7, psilocybin 10 mg): 0.4 | RMET change from baseline, LS mean difference (healthy subjects [2]; Day 7, psilocybin 10 mg - placebo): 0.1 | RMET change from baseline (LS mean) (healthy subjects [2]; Day 7, psilocybin 25 mg): 0.4 | RMET change from baseline, LS mean difference (healthy subjects [2]; Day 7, psilocybin 25 mg - 10 mg): 0.0 | RMET change from baseline, LS mean difference (healthy subjects [2]; Day 7, psilocybin 25 mg - placebo): 0.2 | RMET change from baseline (LS mean) (healthy subjects [2]; Day 84, psilocybin 10 mg): 0.1 | RMET change from baseline, LS mean difference (healthy subjects [2]; Day 84, psilocybin 10 mg - placebo): 0.2 | RMET change from baseline (LS mean) (healthy subjects [2]; Day 84, psilocybin 25 mg): 0.4 | RMET change from baseline, LS mean difference (healthy subjects [2]; Day 84, psilocybin 25 mg - 10 mg): 0.3 | RMET change from baseline, LS mean difference (healthy subjects [2]; Day 84, psilocybin 25 mg - placebo): 0.5
